From patent publication US10385048B2, “Pesticidally active polycyclic derivatives with sulfur containing substituents” (Syngenta Participations AG, priority 2014, dated 2019)

Columns and labels:
Type in all cases: in vivo
Spodoptera littoralis [1] = assay: Spodoptera littoralis (Egyptian cotton leaf worm), cotton leaf discs, L1 larvae; conditions: foliar, 72 h, application rate 200 ppm, L1 larvae on cotton leaf discs, 3 days after infestation
Description: Example B8: Spodoptera littoralis (Egyptian Cotton Leaf Worm)
Cotton leaf discs were placed onto agar in 24-well microtiter plates and sprayed with aqueous test solutions prepared from 10′000 ppm DMSO stock solutions. After drying the leaf discs were infested with five L1 larvae. The samples were assessed for mortality, anti-feeding effect, and growth inhibition in comparison to untreated samples 3 days after infestation. Control of Spodoptera littoralis by a test sample is given when at least one of the categories mortality, anti-feedant effect, and growth inhibition is higher than the untreated sample.

Plutella xylostella = Plutella xylostella (diamond back moth), artificial diet, L2 larvae; conditions: 120 h, application rate 200 ppm, 5 days after infestation, read-out: effect in at least one of the two categories (mortality or growth inhibition)
Description: Example B7: Plutella xylostella (Diamond Back Moth)
(§1) 24-well microtiter plates with artificial diet were treated with aqueous test solutions prepared from 10′000 ppm DMSO stock solutions by pipetting. After drying, the plates were infested with L2 larvae (10 to 15 per well). The samples were assessed for mortality and growth inhibition in comparison to untreated samples 5 days after infestation.

Myzus persicae [2] = assay: Myzus persicae (green peach aphid) feeding/contact activity, sunflower leaf discs; conditions: foliar, 144 h, application rate 200 ppm, 6 days after infestation
Description: Example B5: Myzus persicae (Green Peach Aphid): Feeding/Contact Activity
(§2) Sunflower leaf discs were placed onto agar in a 24-well microtiter plate and sprayed with aqueous test solutions prepared from 10′000 ppm DMSO stock solutions. After drying, the leaf discs were infested with an aphid population of mixed ages. The samples were assessed for mortality 6 days after infestation.

Bemisia tabaci = Bemisia tabaci (cotton white fly) feeding/contact activity, cotton leaf discs; conditions: foliar, 144 h, application rate 200 ppm, adult white flies, 6 days after incubation
Description: Example B1: Bemisia tabaci (Cotton White Fly): Feeding/Contact Activity
Cotton leaf discs were placed on agar in 24-well microtiter plates and sprayed with aqueous test solutions prepared from 10′000 ppm DMSO stock solutions. After drying the leaf discs were infested with adult white flies. The samples were checked for mortality 6 days after incubation.

Diabrotica Balteata = assay: Diabrotica balteata (corn root worm), maize sprouts, L2 larvae; conditions: 96 h, application rate 200 ppm, 4 days after infestation, read-out: effect in at least one of the two categories (mortality or growth inhibition)
Description: Example B2: Diabrotica Balteata (Corn Root Worm)
as §1, with “Maize sprouts placed onto an agar layer in 24-well” for “24-well”, “plates” for “plates with artificial diet”, “spraying.” for “pipetting.”, “(6” for “(10”, “10” for “15”, “4” for “5”

Thrips tabaci = Thrips tabaci (onion thrips) feeding/contact activity, sunflower leaf discs; conditions: foliar, 144 h, application rate 200 ppm, population of mixed ages, 6 days after infestation
Description: Example B11: Thrips tabaci (Onion Thrips) Feeding/Contact Activity
as §2, with “on” for “onto”, “in” for “in a”, “plates” for “plate”, “drying” for “drying,”, “a thrips” for “an aphid”

Euschistus heros = Euschistus heros (neotropical brown stink bug), soybean leaves, N2 nymphs; conditions: 120 h, application rate 200 ppm, 5 days after infestation, read-out: effect in at least one of the two categories (mortality or growth inhibition)
Description: Example B3: Euschistus heros (Neotropical Brown Stink Bug)
Soybean leaves on agar in 24-well microtiter plates were sprayed with aqueous test solutions prepared from 10′000 ppm DMSO stock solutions. After drying the leaves were infested with N2 nymphs. The samples were assessed for mortality and growth inhibition in comparison to untreated samples 5 days after infestation.

Myzus persicae [3] = assay: Myzus persicae (green peach aphid) systemic activity, pea seedling roots; conditions: 144 h, test rate 24 ppm, 6 days after placing seedlings into test solutions
Anopheles stephensi = Anopheles stephensi (Indian malaria mosquito), dry deposit in 12 well plates, adult females; conditions: application rate 200 ppm in ethanol, after 48 h and/or 24 h
Description: Example B13: Anopheles stephensi (Indian Malaria Mosquito)
(§3) Test solutions, at an application rate of 200 ppm in ethanol, were applied to 12 well tissue culture plates. Once the deposits were dry, five, two to five day old adult female Anopheles stephensi were added to each well, and sustained with a 10% sucrose solution in a cotton wool plug. Assessment of knockdown was made one hour after introduction, and mortality was assessed at 24 and 48 hours after introduction.

Aedes aegypti = Aedes aegypti (yellow fever mosquito), dry deposit in 12 well plates, adult females; conditions: application rate 200 ppm in ethanol, after 48 h and/or 24 h
Description: Example B12: Aedes aegypti (Yellow Fever Mosquito)
as §3, with “Aedes aegypti” for “Anopheles stephensi”

Spodoptera littoralis [4] = assay: Spodoptera littoralis (Egyptian cotton leaf worm), uptake by lettuce roots from agar, eggs; conditions: 144 h, test rate 12.5 ppm, lettuce root uptake, 6 days after infestation, read-out: effect in at least one of the three categories (mortality, anti-feeding, or growth inhibition)
Source text: Example B9: Spodoptera littoralis (Egyptian Cotton Leaf Worm)
Test compounds were applied by pipette from 10′000 ppm DMSO stock solutions into 24-well plates and mixed with agar. Lettuce seeds were placed onto the agar and the multi well plate was closed by another plate which contained also agar. After 7 days the compound was absorbed by the roots and the lettuce grew into the lid plate. The lettuce leaves were then cut off into the lid plate. Spodoptera eggs were pipetted through a plastic stencil onto a humid gel blotting paper and the lid plate was closed with it. The samples were assessed for mortality, anti-feedant effect and growth inhibition in comparison to untreated samples 6 days after infestation.

[5] = test system: Frankliniella occidentalis; assay: Frankliniella occidentalis (western flower thrips) feeding/contact activity, sunflower leaf discs; conditions: foliar, 168 h, application rate 200 ppm, population of mixed ages, 7 days after infestation
Description: Example B4: Frankliniella occidentalis (Western Flower Thrips): Feeding/Contact Activity
Sunflower leaf discs were placed on agar in 24-well microtiter plates and sprayed with aqueous test solutions prepared from […] stock solutions. After drying the leaf discs were infested with a Frankliniella population of mixed ages. The samples were assessed for mortality 7 days after infestation.

CCSc1cc(C(F)(F)F)cnc1-c1nc2cc(OC(F)F)ncc2n1C [Compound P7]
≥ 80%: percent control (mortality, anti-feedant effect or growth inhibition) at 200 ppm (Spodoptera littoralis [1])

CCS(=O)(=O)c1cc(C(F)(F)F)cnc1-c1nc2cc(OC(F)F)ncc2n1C [Compound P6, 6-(difluoromethoxy)-2-[3-ethylsulfonyl-5-(trifluoromethyl)-2-pyridyl]-3-methyl-imidazo[4,5-c]pyridine]
≥ 80%: percent control (mortality, anti-feedant effect or growth inhibition) at 200 ppm (Spodoptera littoralis [1]) | percent effect (mortality or growth inhibition) at 200 ppm (Plutella xylostella) | mortality at 200 ppm (Myzus persicae [2]) | mortality at 200 ppm (Bemisia tabaci) | percent effect (mortality or growth inhibition) at 200 ppm (Diabrotica Balteata) | mortality at 200 ppm (Thrips tabaci)

CCSc1cc2nc(-c3ncc(C(F)(F)F)cc3SCC)n(C)c2cn1 [Compound P1]
≥ 80%: percent effect (mortality or growth inhibition) at 200 ppm (Euschistus heros) | percent effect (mortality or growth inhibition) at 200 ppm (Plutella xylostella) | percent effect (mortality or growth inhibition) at 200 ppm (Diabrotica Balteata)

CCS(=O)(=O)c1cc(C(F)(F)F)cnc1-c1nc2cc(OC)ncc2n1C [Compound P2]
≥ 80%: mortality at 24 ppm (Myzus persicae [3])

CCS(=O)(=O)c1cc(C(F)(F)F)cnc1-c1nc2cc(OCC(F)(F)F)ncc2n1C [Compound P14]
≥ 80%: percent effect (mortality or growth inhibition) at 200 ppm (Euschistus heros) | mortality at 200 ppm (Myzus persicae [2]) | mortality at 24 ppm (Myzus persicae [3])

CCSc1cc(C(F)(F)F)cnc1-c1nc2cc(SC(F)(F)F)ncc2n1C [Compound P11, 2-[3-Ethylsulfanyl-5-(trifluoromethyl)-2-pyridyl]-3-methyl-6-(trifluoromethylsulfanyl)imidazo[4,5-c]pyridine]
≥ 80%: percent effect (mortality or growth inhibition) at 200 ppm (Euschistus heros) | percent control (mortality, anti-feedant effect or growth inhibition) at 200 ppm (Spodoptera littoralis [1]) | pest or weed control at 200 ppm (Anopheles stephensi) | percent effect (mortality or growth inhibition) at 200 ppm (Plutella xylostella) | mortality at 200 ppm (Myzus persicae [2]) | percent effect (mortality or growth inhibition) at 200 ppm (Diabrotica Balteata) | pest or weed control at 200 ppm (Aedes aegypti)

CCS(=O)(=O)c1cc(Br)cnc1-c1nc2cc(SC(F)(F)F)ncc2n1C [Compound P16]
≥ 80%: percent effect (mortality or growth inhibition) at 200 ppm (Euschistus heros) | percent control (mortality, anti-feedant effect or growth inhibition) at 200 ppm (Spodoptera littoralis [1]) | pest or weed control at 200 ppm (Anopheles stephensi) | percent effect (mortality or growth inhibition) at 200 ppm (Plutella xylostella) | mortality at 200 ppm (Myzus persicae [2]) | percent effect (mortality, anti-feeding or growth inhibition) at 12.5 ppm (Spodoptera littoralis [4]) | mortality at 200 ppm (Bemisia tabaci) | percent effect (mortality or growth inhibition) at 200 ppm (Diabrotica Balteata) | pest or weed control at 200 ppm (Aedes aegypti) | mortality at 200 ppm (Thrips tabaci)

CCS(=O)(=O)c1cc(C(F)(F)F)cnc1-c1nc2cc(OC(F)(F)Br)ncc2n1C [Compound P5, 6-[bromo(difluoro)methoxy]-2-[3-ethylsulfonyl-5-(trifluoromethyl)-2-pyridyl]-3-methyl-imidazo[4,5-c]pyridine]
≥ 80%: percent effect (mortality or growth inhibition) at 200 ppm (Euschistus heros) | percent control (mortality, anti-feedant effect or growth inhibition) at 200 ppm (Spodoptera littoralis [1]) | pest or weed control at 200 ppm (Anopheles stephensi) | mortality at 200 ppm (Myzus persicae [2]) | percent effect (mortality, anti-feeding or growth inhibition) at 12.5 ppm (Spodoptera littoralis [4]) | mortality at 200 ppm (Bemisia tabaci) | percent effect (mortality or growth inhibition) at 200 ppm (Diabrotica Balteata) | pest or weed control at 200 ppm (Aedes aegypti) | mortality at 200 ppm (Thrips tabaci)

CCS(=O)(=O)c1cc(C(F)(F)F)cnc1-c1nc2cc([S+]([O-])CC(F)(F)F)ncc2n1C (stereo not drawn) [Compound P15, 2-[3-Ethylsulfonyl-5-(trifluoromethyl)-2-pyridyl]-3-methyl-6-(2,2,2-trifluoroethylsulfinyl)imidazo[4,5-c]pyridine]
≥ 80%: percent effect (mortality or growth inhibition) at 200 ppm (Euschistus heros) | percent control (mortality, anti-feedant effect or growth inhibition) at 200 ppm (Spodoptera littoralis [1]) | pest or weed control at 200 ppm (Anopheles stephensi) | percent effect (mortality or growth inhibition) at 200 ppm (Plutella xylostella) | mortality at 200 ppm (Myzus persicae [2]) | percent effect (mortality, anti-feeding or growth inhibition) at 12.5 ppm (Spodoptera littoralis [4]) | mortality at 200 ppm (Bemisia tabaci) | percent effect (mortality or growth inhibition) at 200 ppm (Diabrotica Balteata) | pest or weed control at 200 ppm (Aedes aegypti) | mortality at 24 ppm (Myzus persicae [3]) | mortality at 200 ppm (Thrips tabaci)

CCS(=O)(=O)c1cc(C(F)(F)F)cnc1-c1nc2cc(SC(F)(F)F)ncc2n1C [Compound P10, 2-[3-ethylsulfonyl-5-(trifluoromethyl)-2-pyridyl]-3-methyl-6-(trifluoromethylsulfanyl)imidazo[4,5-c]pyridine]
≥ 80%: percent effect (mortality or growth inhibition) at 200 ppm (Euschistus heros) | percent control (mortality, anti-feedant effect or growth inhibition) at 200 ppm (Spodoptera littoralis [1]) | pest or weed control at 200 ppm (Anopheles stephensi) | percent effect (mortality or growth inhibition) at 200 ppm (Plutella xylostella) | mortality at 200 ppm (Myzus persicae [2]) | mortality at 200 ppm [5] | percent effect (mortality, anti-feeding or growth inhibition) at 12.5 ppm (Spodoptera littoralis [4]) | mortality at 200 ppm (Bemisia tabaci) | percent effect (mortality or growth inhibition) at 200 ppm (Diabrotica Balteata) | pest or weed control at 200 ppm (Aedes aegypti) | mortality at 24 ppm (Myzus persicae [3]) | mortality at 200 ppm (Thrips tabaci)

CCS(=O)(=O)c1cc(C(F)(F)F)cnc1-c1nc2cc(SCC(F)(F)F)ncc2n1C [Compound P17, 2-[3-Ethylsulfonyl-5-(trifluoromethyl)-2-pyridyl]-3-methyl-6-(2,2,2-trifluoroethylsulfanyl) imidazo[4,5-c]pyridine]
≥ 80%: mortality at 200 ppm (Myzus persicae [2]) | percent effect (mortality or growth inhibition) at 200 ppm (Diabrotica Balteata)

CCSc1cc(C(F)(F)F)cnc1-c1nc2cc(OC(F)F)ncc2n1C [Compound P13, 6-(difluoromethoxy)-2-[3-ethylsulfanyl-5-(trifluoromethyl)-2-pyridyl]-3-methyl-imidazo[4,5-c]pyridine]
≥ 80%: percent effect (mortality or growth inhibition) at 200 ppm (Euschistus heros) | pest or weed control at 200 ppm (Anopheles stephensi) | percent effect (mortality or growth inhibition) at 200 ppm (Plutella xylostella) | mortality at 200 ppm (Myzus persicae [2]) | mortality at 200 ppm (Bemisia tabaci) | percent effect (mortality or growth inhibition) at 200 ppm (Diabrotica Balteata) | pest or weed control at 200 ppm (Aedes aegypti)

CCS(=O)(=O)c1cc(C(F)(F)F)cnc1-c1nc2cc(OCC(F)F)ncc2n1C [Compound P3]
≥ 80%: percent effect (mortality or growth inhibition) at 200 ppm (Euschistus heros) | percent control (mortality, anti-feedant effect or growth inhibition) at 200 ppm (Spodoptera littoralis [1]) | percent effect (mortality or growth inhibition) at 200 ppm (Plutella xylostella) | mortality at 200 ppm (Myzus persicae [2]) | percent effect (mortality, anti-feeding or growth inhibition) at 12.5 ppm (Spodoptera littoralis [4]) | percent effect (mortality or growth inhibition) at 200 ppm (Diabrotica Balteata)
